# Legend:
# Assay type in all cases: cell-based, human
# [1] = system: self-organizing single-rosette spheroids (SOSRS); assay: SOSRS cell death and growth during dorsal differentiation
# Protocol: iPSC lines were passaged using Accutase (Innovative cell) and replated onto Geltrex-coated (1:50 dilution in DMEM/F12) 12-well plates at 1.5-2×10^5 cells/well in mTeSR1 with 10 μM rho-kinase inhibitor (Y-27632; Tocris, 1254). The medium without the inhibitor was replaced daily until the cells reach 80-100% confluency. The medium was then changed to 3N (50:50 DMEM/F12:neurobasal with N2 and B27 supplements) (see, Shi, Y., et al., Nature Neuroscience 15, 477-486 (2012)) without vitamin A with 2 μM DMH1 (Tocris, 4126), 2 μM XAV939 (Cayman Chemical, 13596), and 10 μM SB431542 (Cayman Chemical, 13031) (4 mL of medium per well). 75% of this medium was changed daily with 1 μM cyclopamine (Cayman Chemical, 11321) added beginning on day 1. On day 4, the monolayer was cut into squares using the StemPro EZ passage tool. The squares were then washed once with PBS and incubated for 2 minutes with L7 hPSC passaging solution (Lonza). After aspirating the L7 solution, the squares were sprayed off the bottom with the same culture medium 1 mL of preconditioned culture media with a P1000 micropipette. An additional 2 mL of fresh culture medium with the 4 inhibitors was added for a final volume of 3 mL. Approximately 200 μL of resuspended squares were then transfer into the wells of 96-well plates preincubated at 37° C. for 20 minutes with 30 μL of 100% Geltrex solution in each well. Up to 16 wells can be made using one monolayer well. Higher densities will result in fusion between nearby SOSRS forming multi-rosette doublets or “strings”. After 48 hours, daily 50% media changes were performed. On day 6 overall (2 days after cutting), the four inhibitors were no longer added but replaced with the 3 μM CHIR99021. After 3-4 additional days of culture, the wells were washed once with PBS and incubated for 2 minutes with L7 solution. The organoids were individually removed using the STRIPPER (Cooper Surgical) with 275 μM tips and plated individually in the wells of a low-adherence U-bottom 96-well plate with 200 μL of 3N medium without vitamin A with 3 μM CHIR99021, BDNF (20 ng/mL), and NT3 (20 ng/mL). […]
# ventral SOSRS = assay: Ventral SOSRS patterning (immunostaining, size)
# Protocol: For ventral SOSRS differentiation, no cyclopamine or CHIR99021 were used. After plating onto Geltrex, 1 μM SAG and 2 μM XAV939 were added the culture media for 1 week. All other procedures were performed identically (FIG. 5).
# SOSRS imaged before day 11 were grown on Nunc™ Lab-Tek™ III 8-well chamber slides (Thermo Scientific) and were fixed in paraformaldehyde for 30 min at room temperature (RT). After permeabilization with 0.2% Triton-X 100 for 20 min at RT, cells were incubated in PBS containing 5% normal goat serum with 1% BSA and 0.05% Triton-X100 for 1 h at RT. Older SOSRS were fixed for 30 minutes in suspension and incubated in 30% sucrose overnight at 4 C followed by embedding in TFM medium and freezing on dry ice. The blocks were sectioned on a Cryostat with 20 μM section thickness. All samples were incubated in primary antibody overnight (see Supplemental Table 2 for antibodies and dilutions) in the same blocking buffer at 4° C., washed 4 times in PBS with 0.05% Tween-20 (PBST), and incubated for 90 min with secondary antibody. Cells were washed 3 times in PBST and incubated with bisbenzimide for 5 min. After additional PBS washes, coverslips were mounted on slides with Glycergel mounting medium (Agilent Dako). Images were obtained on a Leica SP5 upright DMI 6000 confocal microscope. […]
# [2] = system: self-organizing single-rosette spheroids (SOSRS); assay: SOSRS neuroteratogen screening (structural read-out of lumen/neurulation)
# Protocol: iPSC lines were passaged using Accutase (Innovative cell) and replated onto Geltrex-coated (1:50 dilution in DMEM/F12) 12-well plates at 1.5-2×10^5 cells/well in mTeSR1 with 10 μM rho-kinase inhibitor (Y-27632; Tocris, 1254). The medium without the inhibitor was replaced daily until the cells reach 80-100% confluency. The medium was then changed to 3N (50:50 DMEM/F12:neurobasal with N2 and B27 supplements) (see, Shi, Y., et al., Nature Neuroscience 15, 477-486 (2012)) without vitamin A with 2 μM DMH1 (Tocris, 4126), 2 μM XAV939 (Cayman Chemical, 13596), and 10 μM SB431542 (Cayman Chemical, 13031) (4 mL of medium per well). 75% of this medium was changed daily with 1 μM cyclopamine (Cayman Chemical, 11321) added beginning on day 1. On day 4, the monolayer was cut into squares using the StemPro EZ passage tool. The squares were then washed once with PBS and incubated for 2 minutes with L7 hPSC passaging solution (Lonza). After aspirating the L7 solution, the squares were sprayed off the bottom with the same culture medium 1 mL of preconditioned culture media with a P1000 micropipette. An additional 2 mL of fresh culture medium with the 4 inhibitors was added for a final volume of 3 mL. Approximately 200 μL of resuspended squares were then transfer into the wells of 96-well plates preincubated at 37° C. for 20 minutes with 30 μL of 100% Geltrex solution in each well. Up to 16 wells can be made using one monolayer well. Higher densities will result in fusion between nearby SOSRS forming multi-rosette doublets or “strings”. After 48 hours, daily 50% media changes were performed. On day 6 overall (2 days after cutting), the four inhibitors were no longer added but replaced with the 3 μM CHIR99021. After 3-4 additional days of culture, the wells were washed once with PBS and incubated for 2 minutes with L7 solution. The organoids were individually removed using the STRIPPER (Cooper Surgical) with 275 μM tips and plated individually in the wells of a low-adherence U-bottom 96-well plate with 200 μL of 3N medium without vitamin A with 3 μM CHIR99021, BDNF (20 ng/mL), and NT3 (20 ng/mL). Ideal diameters for picking the SOSRS are between 250-300 μM. Two days later half-fold media changes with 3N with vitamin A, BDNF (20 ng/mL), and NT3 (20 ng/mL) and repeated every other day. After 35 days of differentiation, 3N media with vitamin A without neurotrophic factors (BDNF and NT3) is used for half-fold media changes every other day. Around this time, SOSRS are transferred from the low-adherence 96-well plate to a low-adherence 24 well plate for a necessary increase in media volume due to SOSRS size.
# SOSRS imaged before day 11 were grown on Nunc™ Lab-Tek™ III 8-well chamber slides (Thermo Scientific) and were fixed in paraformaldehyde for 30 min at room temperature (RT). After permeabilization with 0.2% Triton-X 100 for 20 min at RT, cells were incubated in PBS containing 5% normal goat serum with 1% BSA and 0.05% Triton-X100 for 1 h at RT. Older SOSRS were fixed for 30 minutes in suspension and incubated in 30% sucrose overnight at 4 C followed by embedding in TFM medium and freezing on dry ice. The blocks were sectioned on a Cryostat with 20 μM section thickness. All samples were incubated in primary antibody overnight (see Supplemental Table 2 for antibodies and dilutions) in the same blocking buffer at 4° C., washed 4 times in PBS with 0.05% Tween-20 (PBST), and incubated for 90 min with secondary antibody. Cells were washed 3 times in PBST and incubated with bisbenzimide for 5 min. After additional PBS washes, coverslips were mounted on slides with Glycergel mounting medium (Agilent Dako). Images were obtained on a Leica SP5 upright DMI 6000 confocal microscope.
# This 3D model of human neurulation allowed us to test known neuroteratogens that block a specific pathway necessary for proper neural tube formation. These were the rho-kinase inhibitor, Y-27632, and the non-muscle myosin inhibitor, blebbistatin^26, 27. […]
# [3] = addition from day 6-10, 3 μM, FIG. 2
smiles,measurement,setting,value
Cc1c[nH]c(-c2cnc(NCCNc3ccc(C#N)cn3)nc2-c2ccc(Cl)cc2Cl)n1 [CHIR99021],SOSRS growth,[1]; [3],grow more rapidly
same,cell death around SOSRS perimeter,[1]; [3],blocked the majority of cell death
same,PAX6 positive cells,"[1]; pulse day 6-10, FIGS. 1i and j",rapid expansion
CNC1CCC(N(Cc2cccc(-c3ccncc3)c2)C(=O)c2sc3ccccc3c2Cl)CC1 (stereo not drawn) [SAG],NKX2.1/FOXG1 positive cells,"ventral SOSRS; one-month SOSRS, SAG instead of CHIR99021 from day 7 to day 14, XAV939 continued",~100%
CC(/C=C/C(=O)NO)=C\[C@@H](C)C(=O)c1ccc(N(C)C)cc1 [TSA],replication of the VPA effect on ratio of lumen area to SOSRS area,[2],not replicated
"Oc1nc(-c2ccc(C(F)(F)F)cc2)nc2c1CSCC2 [XAV939, 3,5,7,8-Tetrahydro-2-[4-(trifluoromethyl)phenyl]-4H-thiopyrano[4,3-d]pyri-midin-4-one]",SOSRS size and MGE specification,"ventral SOSRS; continued day 7 to day 14 with SAG, data not shown",increase
C[C@@H](N)[C@H]1CC[C@H](C(=O)Nc2ccncc2)CC1 [Y-27632],apical end-feet surface areas (ZO-1),[2],increased
same,lumen circularity,[2],decreased
same,lumen/total area,[2],increased
Cc1ccc2c(c1)C(=O)C1(O)CCN(c3ccccc3)C1=N2 (stereo not drawn) [blebbistatin],apical end-feet surface areas (ZO-1),[2],increased
same,lumen circularity,[2],decreased
same,lumen/total area,[2],increased

# — patent publication US20230151336A1, “STEM CELL DERIVED SINGLE-ROSETTE BRAIN ORGANOIDS AND RELATED USES THEROF” (The Regents of the University of Michigan, priority 2020, published 2023)
